Source: BindingDB's records for doi:10.1021/jm801507v (AstraZeneca, 2009)

Columns and labels:
[1] = target: T1, Diacylglycerol O-acyltransferase 1 (Homo sapiens, UniProt O75907); test: DGAT Enzyme Inhibition Assay; conditions: pH 7.4; 22 °C
T1 sequence (O75907 whole entry): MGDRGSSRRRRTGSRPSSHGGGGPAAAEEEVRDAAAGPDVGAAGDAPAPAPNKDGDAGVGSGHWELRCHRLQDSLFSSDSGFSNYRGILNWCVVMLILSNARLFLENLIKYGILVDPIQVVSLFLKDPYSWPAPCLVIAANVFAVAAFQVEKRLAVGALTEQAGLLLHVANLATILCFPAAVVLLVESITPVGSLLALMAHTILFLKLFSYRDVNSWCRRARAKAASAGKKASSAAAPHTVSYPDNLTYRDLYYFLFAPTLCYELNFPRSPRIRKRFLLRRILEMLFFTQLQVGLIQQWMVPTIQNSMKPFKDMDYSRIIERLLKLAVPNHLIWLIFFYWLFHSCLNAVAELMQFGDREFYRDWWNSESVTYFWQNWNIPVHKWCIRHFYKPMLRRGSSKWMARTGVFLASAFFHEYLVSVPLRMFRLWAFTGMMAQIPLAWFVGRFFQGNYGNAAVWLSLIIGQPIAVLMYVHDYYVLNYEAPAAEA
Experimental: The assay mixture contains test compound, membrane protein, and 1,2 dioleoyl-sn-glycerol in a 96-deep well plate. The reaction was started by adding substrate [14C]oleoyl coenzyme A and incubated. After the reaction was stopped, radioactive triolein product was separated into the organic heptane phase. DGAT activity was quantified by counting aliquots of the upper heptane layer by liquid scintillography.

[2] = target: T2, Sterol O-acyltransferase 1 (Homo sapiens, UniProt P35610); test: ACAT-1 Enzyme Inhibition Assay; conditions: pH 7.4; 37 °C
T2 sequence (P35610 whole entry): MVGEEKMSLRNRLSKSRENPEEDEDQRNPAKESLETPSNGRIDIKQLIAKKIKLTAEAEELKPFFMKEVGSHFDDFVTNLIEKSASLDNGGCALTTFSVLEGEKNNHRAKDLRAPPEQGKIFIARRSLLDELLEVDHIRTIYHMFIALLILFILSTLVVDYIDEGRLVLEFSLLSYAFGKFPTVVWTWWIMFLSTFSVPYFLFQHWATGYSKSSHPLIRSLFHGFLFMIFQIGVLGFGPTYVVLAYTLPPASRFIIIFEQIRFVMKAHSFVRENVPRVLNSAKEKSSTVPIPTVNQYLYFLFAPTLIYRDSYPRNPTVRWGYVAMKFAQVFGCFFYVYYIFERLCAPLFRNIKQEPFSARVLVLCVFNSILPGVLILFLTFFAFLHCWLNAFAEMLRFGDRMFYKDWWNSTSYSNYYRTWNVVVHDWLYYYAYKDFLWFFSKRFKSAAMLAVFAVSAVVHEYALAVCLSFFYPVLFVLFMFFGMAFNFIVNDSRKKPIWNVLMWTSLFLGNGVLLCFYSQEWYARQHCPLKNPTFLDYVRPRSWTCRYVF
Experimental: The reaction was started by adding substrate [14C]oleoyl coenzyme A and incubated. After the reaction was stopped, radioactive cholesteryl oleate product was separated into the organic heptane phase. ACAT-1 activity was quantified by counting aliquots of the upper heptane layer by liquid scintillography.

CC1(C)Oc2ncnc(N)c2N=C1c1ccc(C23CCCC(CC(=O)O)(CC2)CC3)cc1 [2-[5-(4-{4-amino-7,7-dimethyl-7H-pyrimido[4,5-b][1,4]oxazin-6-yl}phenyl)bicyclo[3.2.2]nonan-1-yl]acetic acid]
IC50 [1]: 0.069 µM
IC50 [2]: 28 µM
